Laboratory results from patent US8741944B2, “Anti-infective agents against intracellular pathogens” (priority 2007, dated 2014).
Where two headings read alike, the source gives them in different places.

Legend:
[1] = system: OVCAR-5 (Ovarian Cancer); assay: NCI DTP tumor cell line screen (SRB), OVCAR-5
Experimental: (§1) For a typical screening experiment, cells are inoculated into 96 well microtiter plates in 100 μL at plating densities ranging from 5,000 to 40,000 cells/well depending on the doubling time of individual cell lines. After cell inoculation, the microtiter plates are incubated at 37° C., 5% CO2, 95% air and 100% relative humidity for 24 h prior to addition of experimental drugs.
(§2) After 24 h, two plates of each cell line are fixed in situ with TCA, to represent a measurement of the cell population for each cell line at the time of drug addition (Tz). Experimental drugs are solubilized in dimethyl sulfoxide at 400-fold the desired final maximum test concentration and stored frozen prior to use. At the time of drug addition, an aliquot of frozen concentrate is thawed and diluted to twice the desired final maximum test concentration with complete medium containing 50 μg/ml gentamicin. Additional four, 10-fold or ½ log serial dilutions are made to provide a total of five drug concentrations plus control. Aliquots of 100 μl of these different drug dilutions are added to the appropriate microtiter wells already containing 100 μl of medium, resulting in the required final drug concentrations.
(§3) Following drug addition, the plates are incubated for an additional 48 h at 37° C., 5% CO2, 95% air, and 100% relative humidity. For adherent cells, the assay is terminated by the addition of cold TCA. Cells are fixed in situ by the gentle addition of 50 μl of cold 50% (w/v) TCA (final concentration, 10% TCA) and incubated for 60 minutes at 4° C. The supernatant is discarded, and the plates are washed five times with tap water and air dried. Sulforhodamine B (SRB) solution (1001) at 0.4% (w/v) in 1% acetic acid is added to each well, and plates are incubated for 10 minutes at room temperature. After staining, unbound dye is removed by washing five times with 1% acetic acid and the plates are air dried. Bound stain is subsequently solubilized with 10 mM trizma base, and the absorbance is read on an automated plate reader at a wavelength of 515 nm. For suspension cells, the methodology is the same except that the assay is terminated by fixing settled cells at the bottom of the wells by gently adding 50 μl of 80% TCA (final concentration, 16% TCA). Using the seven absorbance measurements [time zero, (Tz), control growth, (C), and test growth in the presence of drug at the five concentration levels (Ti)], the percentage growth is calculated at each of the drug concentrations levels. Percentage growth inhibition is calculated as: [(Ti−Tz)/(C−Tz)]×100 for concentrations for which Ti>/=Tz [(Ti−Tz)/Tz]×100 for concentrations for which Ti<Tz
(§4) Three dose response parameters are calculated for each experimental agent. […] The drug concentration resulting in total growth inhibition (TGI) is calculated from Ti=Tz. […] Values are calculated for each of these three parameters if the level of activity is reached; however, if the effect is not reached or is exceeded, the value for that parameter is expressed as greater or less than the maximum or minimum concentration tested.

[2] = system: M14 (Melanoma); assay: NCI DTP tumor cell line screen (SRB), M14
Experimental: as §1, §2, §3, §4

[3] = system: OVCAR-8 (Ovarian Cancer); assay: NCI DTP tumor cell line screen (SRB), OVCAR-8; conditions: OVCAR-8
Experimental: as §1, §2, §3, §4

[4] = system: MALME-3M (Melanoma); assay: NCI DTP tumor cell line screen (SRB), MALME-3M
Experimental: as §1, §2, §3, §4

[5] = system: NCI-H522 (Non-Small Cell Lung Cancer)
Experimental: as §1, §2, §3, §4

[6] = system: T-47D (Breast Cancer); assay: NCI DTP tumor cell line screen (SRB), T-47D
Experimental: as §1, §2, §3, §4

[7] = system: HT29 (Colon Cancer); assay: NCI DTP tumor cell line screen (SRB), HT29
Experimental: as §1, §2, §3, §4

[8] = system: IGROV1 (Ovarian Cancer); assay: NCI DTP tumor cell line screen (SRB), IGROV1
Experimental: as §1, §2, §3, §4

[9] = system: A549/ATCC (Non-Small Cell Lung Cancer); assay: NCI DTP tumor cell line screen (SRB), A549/ATCC
Experimental: as §1, §2, §3, §4

SMILES: NCC(=O)Nc1ccc(-n2nc(C(F)(F)F)cc2-c2ccc3c(ccc4ccccc43)c2)cc1 [Compound 70, 2-Amino-N-{4-[5-(2-phenanthrenyl)-3-(trifluoromethyl)-1H-pyrazol-1-yl]-phenyl}-acetamide]
- TGI [1]: 3.32E−06
- Mean Optical Densities ([1]; Log10 Concentration −4.0): 0.149
- Mean Optical Densities ([1]; Log10 Concentration −5.0): 0.087
- Percent Growth ([1]; Log10 Concentration −5.0): −83%
- Mean Optical Densities ([1]; Log10 Concentration −6.0): 1.412
- Percent Growth ([1]; Log10 Concentration −6.0): 90%
- Mean Optical Densities ([1]; Log10 Concentration −7.0): 1.540
- Percent Growth ([1]; Log10 Concentration −7.0): 103%
- Mean Optical Densities ([1]; Log10 Concentration −8.0): 1.480
- Percent Growth ([1]; Log10 Concentration −8.0): 97%
- TGI [2]: 5.37E−06
- Mean Optical Densities ([2]; Log10 Concentration −4.0): 0.256
- Mean Optical Densities ([2]; Log10 Concentration −5.0): 0.211
- Percent Growth ([2]; Log10 Concentration −5.0): −33%
- Mean Optical Densities ([2]; Log10 Concentration −6.0): 0.916
- Percent Growth ([2]; Log10 Concentration −6.0): 90%
- Mean Optical Densities ([2]; Log10 Concentration −7.0): 0.974
- Percent Growth ([2]; Log10 Concentration −7.0): 98%
- Mean Optical Densities ([2]; Log10 Concentration −8.0): 0.975
- Percent Growth ([2]; Log10 Concentration −8.0): 98%
- TGI [3]: 4.05E−06
- Mean Optical Densities ([3]; Log10 Concentration −4.0): 0.306
- Mean Optical Densities ([3]; Log10 Concentration −5.0): 0.269
- Percent Growth ([3]; Log10 Concentration −5.0): −33%
- Mean Optical Densities ([3]; Log10 Concentration −6.0): 0.755
- Percent Growth ([3]; Log10 Concentration −6.0): 51%
- Mean Optical Densities ([3]; Log10 Concentration −7.0): 1.114
- Percent Growth ([3]; Log10 Concentration −7.0): 102%
- Mean Optical Densities ([3]; Log10 Concentration −8.0): 1.078
- Percent Growth ([3]; Log10 Concentration −8.0): 97%
- TGI [4]: 3.67E−06
- Mean Optical Densities ([4]; Log10 Concentration −4.0): 0.290
- Mean Optical Densities ([4]; Log10 Concentration −5.0): 0.218
- Mean Optical Densities ([4]; Log10 Concentration −6.0): 1.102
- Mean Optical Densities ([4]; Log10 Concentration −7.0): 1.128
- TGI [5]: 3.94E−06
- Mean Optical Densities ([5]; Log10 Concentration −4.0): 0.486
- Mean Optical Densities ([5]; Log10 Concentration −5.0): 0.260
- Percent Growth ([5]; Log10 Concentration −5.0): −66%
- Mean Optical Densities ([5]; Log10 Concentration −6.0): 1.528
- Percent Growth ([5]; Log10 Concentration −6.0): 97%
- Mean Optical Densities ([5]; Log10 Concentration −7.0): 1.718
- Percent Growth ([5]; Log10 Concentration −7.0): 122%
- Mean Optical Densities ([5]; Log10 Concentration −8.0): 1.626
- Percent Growth ([5]; Log10 Concentration −8.0): 110%
- TGI [6]: 4.21E−06
- Mean Optical Densities ([6]; Log10 Concentration −4.0): 0.238
- Mean Optical Densities ([6]; Log10 Concentration −5.0): 0.205
- Percent Growth ([6]; Log10 Concentration −5.0): −52%
- Mean Optical Densities ([6]; Log10 Concentration −6.0): 0.935
- Percent Growth ([6]; Log10 Concentration −6.0): 86%
- Mean Optical Densities ([6]; Log10 Concentration −7.0): 1.071
- Percent Growth ([6]; Log10 Concentration −7.0): 109%
- Mean Optical Densities ([6]; Log10 Concentration −8.0): 0.921
- Percent Growth ([6]; Log10 Concentration −8.0): 84%
- TGI [7]: 2.64E−06
- Mean Optical Densities ([7]; Log10 Concentration −4.0): 0.159
- Mean Optical Densities ([7]; Log10 Concentration −5.0): 0.075
- Percent Growth ([7]; Log10 Concentration −5.0): −65%
- Mean Optical Densities ([7]; Log10 Concentration −6.0): 0.801
- Percent Growth ([7]; Log10 Concentration −6.0): 47%
- Mean Optical Densities ([7]; Log10 Concentration −7.0): 1.299
- Percent Growth ([7]; Log10 Concentration −7.0): 88%
- Percent Growth ([7]; Log10 Concentration −8.0): 92%
- TGI [8]: 3.97E−06
- Mean Optical Densities ([8]; Log10 Concentration −4.0): 0.302
- Mean Optical Densities ([8]; Log10 Concentration −5.0): 0.235
- Percent Growth ([8]; Log10 Concentration −5.0): −49%
- Mean Optical Densities ([8]; Log10 Concentration −6.0): 0.902
- Percent Growth ([8]; Log10 Concentration −6.0): 74%
- Mean Optical Densities ([8]; Log10 Concentration −7.0): 1.103
- Percent Growth ([8]; Log10 Concentration −7.0): 107%
- Mean Optical Densities ([8]; Log10 Concentration −8.0): 1.044
- Percent Growth ([8]; Log10 Concentration −8.0): 97%
- TGI [9]: 2.96E−06
- Mean Optical Densities ([9]; Log10 Concentration −4.0): 0.252
- Mean Optical Densities ([9]; Log10 Concentration −5.0): 0.155
